Test results: paper PMC5217690 (The Journal of Biological Chemistry, 2016)
Positions count from the first letter of the chain named.

How the values were obtained:
TrmDEC [1] = target: T1, TrmDEC (Escherichia coli, UniProt P0A873, Y86F); test: ITC; type: binding
T1 construct: gene trmD; full-length, N-terminal His tag (pET28b), expressed in E. coli BL21(DE3), tag kept
T1 sequence (P0A873 2-255 Y86F): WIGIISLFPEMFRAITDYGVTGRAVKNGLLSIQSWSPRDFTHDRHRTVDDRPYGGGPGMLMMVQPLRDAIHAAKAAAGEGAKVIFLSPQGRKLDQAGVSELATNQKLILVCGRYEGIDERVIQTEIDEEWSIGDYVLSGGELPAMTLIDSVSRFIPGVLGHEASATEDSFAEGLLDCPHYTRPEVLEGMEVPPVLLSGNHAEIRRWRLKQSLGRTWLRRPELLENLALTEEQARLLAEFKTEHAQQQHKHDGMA

TrmDEC [2] = target: T2, TrmDEC (Escherichia coli, UniProt P0A873, Y86L); test: ITC; type: binding
T2 construct: gene trmD; full-length, N-terminal His tag (pET28b), expressed in E. coli BL21(DE3), tag kept
T2 sequence (P0A873 2-255 Y86L): T1 sequence (P0A873 2-255 Y86F) with F85L

Structure (SMILES): C[S+](CC[C@H](N)C(=O)O)C[C@H]1O[C@@H](n2cnc3c(N)ncnc32)[C@H](O)[C@@H]1O (some centres unmarked) [AdoMet]
- Kd (TrmDEC [1]): 27.9 µM
- Kd (TrmDEC [2]): 69.9 µM
